In patent publication US8677934B2 (Yissum Research Development Company of the Hebrew …, priority 2007, dated 2014):
Positions of bridges follow the written chain, without caps; N, C: chain ends. Residues, ends and D or L forms follow the SMILES beside them.

Legend:
[1] = hemolymph extracted from 4-days old mated females, in 100 mM Tris buffer, pH 8.0; conditions: D. melanogaster, 37° C., up to 60 min
[2] = tested on: Elastase; test: Elastase from porcine pancreas in 100 mM Tris buffer, pH 8.0; conditions: 37° C., up to 60 min
[3] = mated female hemolymph (50 D. melanogaster female-equivalents); conditions: 37° C., up to 40 min
[4] = assay type: in vitro ADME, Drosophila melanogaster
Protocol: Liquid Chromatography—Mass Spectrometery (LC-MS/MS). Hemolymph was prepared as described in section 2.3, except that 50 D. melanogaster female-equivalents of unmated or mated female flies were used for 30 min incubations with 20 μg of T-SP. Reactions were terminated and processed as detailed in section 2.5. The supernatants of the methanol precipitations were lyophilized and resuspended by sonication in 100 μl of loading buffer (5% acetonitrile, 0.1% formic acid) and analyzed by LC-MS/MS. Briefly, the peptide mixtures were run in an Agilent 1100 series micro-flow HPLC system (Agilent Technologies, Inc., Palo Alto, Calif.) coupled to an Esquire-HCT ion trap mass spectrometer through the online nano-ESI ion source (Broker Daltonik GmbH, Bremen). Peptides were separated on a Protein-15-C18-150 microbore column (Micro-Tech Scientific, Cousteau, Court Vista, Calif.) using a 5% to 30% gradient of acetonitrile in 0.1% formic acid for 37 min at […], at a flow rate of 1 μl/min. MS and MS2 spectra were acquired in a data-driven way with parameters optimized for peptide mixture analysis. The resulting MS/MS chromatograms were processed by the DataAnalysis 3.1 application and further analysed with BioTools 2.2 (Broker Daltonik GmbH, Bremen) and MASCOT (Matrix Science), assuming the unknown specificity of the hemolymph protease. A 95% confidence interval was set as threshold. […]

[5] = tested on: D. melanogaster females; test: Receptivity assay, ectopic expression in unmated females by heat-inducible GAL4 driver (hsp70-GAL4); assay type: in vivo, Drosophila melanogaster; conditions: for duration of rejection behavior (kicking and extruding ovipositor): days examined
Protocol: Heat shock. Transgenic unmated females carrying the mutated T-SP (hsp70-GAL4; UAS-T-SPX) were placed in empty vials supplemented with moisture filter paper. Files were placed in water bath and heated gradually from 25 to 37° C. Flies were kept at this temperature for 1 hr thereafter returned to room temperature for one hour for recovery. Recovered heat-shocked flies were placed in food vials and kept at 25° C. until used.
(§1) Receptivity assay. Single unmated females of each homogenous UAS-T-SP transgene (see also Table 2) were placed in a food vial with single unmated 3-5-day-old males of the same UAS-T-SP transgene. Two parameters were monitored for one hour: (i) Receptivity rate—the number of female that mated; (ii) courtship behavior—whether or not female performed a rejection behaviors (kicking and extruding their ovipositor). […] For that a group of 10 females were isolated from each group and their behavior was inspected. […] These females will be exposed in the next day to newly unmated 3-5-day-old males (see section developing bioassay for additional details).
To examine the effect of the modified T-SP on female receptivity we first developed a sensitive bioassay that provided optimal conditions to test the transgenes. […] We examined two independent lines to determine the effect of exposure to one or two males and whether a window of one hour would be sensitive enough to detect changes in female behavior. Four-day-old unmated females were placed with one or two males in a fresh food vial and their behavior was documented. Mated females were separated from males and left in the food vials. Twenty four hours later the females were re-exposed to unmated 3-day-old males and inspected for mating encounter and courting behavior for 1 hour. […] About 50% of the females re-mated after 4 to 5 days (FIGS. 7A-B).
Since a change in the willingness of the female to mate is expressed in their behavior, we next developed a qualitative behavioral bioassay. Mated females reject the courting males by extruding their ovipositor toward the male and/or by kicking the courting male. Theses behaviors are not seen in unmated females. We set up a system in which we inspected whether or not the female kicks the male and extrudes her ovipositor toward the male (see material and methods), both of which are predictors of female receptivity status.

[6] = tested on: D. melanogaster females; test: Receptivity assay, peptide expressed in male accessory glands and transferred to the female during mating; assay type: in vivo, Drosophila melanogaster; conditions: transgene received from male seminal fluid, FIG. 14
Text: Transgenic flies. The GAL4-UAS system, first described by Brand and Perrimon (1993), was used for transgenesis of D. melanogaster. Briefly, T-SP was cloned into the pUAST vector, which bears an upstream activating sequence (UAS) site able to bind to the yeast transcription factor GAL4. Two separate fly lines are reared, the one (UAS) bearing the gene(s) to be transcribed and a chosen promoter (target line), the second being the GAL4 activating line. By select and controlled crossing of these two parent lines, the transgene, in this case T-SP or its amino-acid substituted homolog, is activated and expressed in the filial generation, at different times during development, and/or in select tissues, dependent on the promoter and inducer utilized. In this case, the GAL4 gene is under the control of the accessory gland specific promoter 26Aa that is induced only in the accessory glands (Park et al., 1994).
RT-PCR. Expression was induced by a heat-inducible GAL4 driver (hsp70-GAL4), or with the Acp26Aa GAL4 driver (Acp26Aa-GAL4) which, restricts expression to the male accessory glands exclusively. To verify the expression of T-SP, groups of 10 heat-shocked females were taken at different time post-heat-shock, placed in Eppendorf tubes, quick-frozen in liquid nitrogen and kept at −80° C. until subject to RNA extraction. mRNA extraction was performed with Dynabeads (Invitrogen) according to the manufacturer's instructions.
as §1, with “details). […]” for “details).”

[7] = tested on: trypsin activity of mated female hemolymph; test: Trypsin inhibition assay: cleavage of N-Bnz-R-pna by mated female hemolymph; assay type: biochemical, Drosophila melanogaster; conditions: 20 min pre-incubation, with DTT
Protocol: Hemolymph sample preparation. Hemolymph from batches of 250 unmated or mated females was extracted 4 days after eclosion as in Lung and Wolfner (1999). Briefly, groups of 5 flies, punctured in the prothorax, were placed head down in chilled Eppendorf tubes (0.5 ml tube pierced in the bottom and inserted into intact 1.5 ml tubes) and centrifuged at 4° C. Tubes were inspected for presence of fat body. Ten μl of 100 mM Tris buffer, pH 8.0, was added to the first tube, and then the collected hemolymph plus Tris from tube 1 was transferred from this tube to the next tube and so on, in to pool hemolymph extracted from unmated or mated female flies.
Protease and inhibition assays. Protease activity in D. melanogaster female hemolymph was assayed using chromogenic substrates. […]
Commercial enzymes (response controls of the specific reaction mixture) were dissolved in 100 mM Tris buffer, pH 8.0, at a concentration of 5 μg/μl. […] Activity was recorded as increase in absorbance, due to the release of 4-nitroaniline, as measured using an ELISA reader with 405 nm filter in an ELISA Plate Reader (ELx800, Bio-Tek Instruments). Values are relative absorbance readings, obtained with equal fly-equivalents of hemolymph as source of protease. […] Hemolymph protein content was measured spectroscopically at 280 nm, and was 0.5-1 μg per female. […]

[8] = tested on: CA of young unmated female C. capitata; test: In-vitro synthesis of JHB3 by the corpus allatum; parameters: species or system Ceratitis capitata; conditions: DrmSP with its N-terminal motif
[9] = hsp70-GAL4 driver, FIG. 10, wild-type threshold 4-5 days
[10] = other independent lines, FIG. 11, n=20

Molecule: N-Succinyl-Ala-Ala-Val-pna
- cleaved bond [1]: V-pna
- cleaved bond [2]: V-pna

Molecule: KPTKFPIPSPNPRDKWCRLNLGPAWGGRC
- cleaved bond [3]: R25-L26, major, 30 min

Molecule: CC[C@H](C)[C@H](NC(=O)[C@@H]1CCCN1C(=O)[C@H](Cc1ccccc1)NC(=O)[C@H](CCCCN)NC(=O)[C@@H](NC(=O)[C@@H]1CCCN1C(=O)[C@@H](N)CCCCN)[C@@H](C)O)C(=O)N1CCC[C@H]1C(=O)N[C@@H](CO)C(=O)N1CCC[C@H]1C(=O)N[C@@H](CC(N)=O)C(=O)N1CCC[C@H]1C(=O)N[C@@H](CCCNC(=N)N)C(=O)N[C@@H](CC(=O)O)C(=O)N[C@@H](CCCCN)C(=O)N[C@@H](Cc1c[nH]c2ccccc12)C(=O)N[C@H]1CSSC[C@@H](C(=O)O)NC(=O)[C@H](CCCNC(=N)N)NC(=O)CNC(=O)CNC(=O)[C@H](Cc2c[nH]c3ccccc23)NC(=O)[C@H](C)NC(=O)[C@@H]2CCCN2C(=O)CNC(=O)[C@H](CC(C)C)NC(=O)[C@H](CC(N)=O)NC(=O)[C@H](CC(C)C)NC(=O)[C@H](CCCNC(=N)N)NC1=O [T-SP] (H-KPTKFPIPSPNPRDKWCRLNLGPAWGGRC-OH; disulfide 17-29; N-terminus and C-terminus assumed)
- number of different fragments yielded [4]: 11
- number of fragments obtained [4]: five
- duration of induced female non-receptivity [5, 9]: 8 days
- duration of rejection behavior (kicking and extruding ovipositor) ([5]; hsp70-GAL4 driver): 8 days
- duration of induced female non-receptivity [5, 10]: 8 days
- time at which females commenced re-mating after the first mating [6]: three

Molecule: N-Succinyl-Ala-Ala-Pro-Leu-pna
- cleaved bond [1]: L-pna

Molecule: Cc1ccc(S(=O)(=O)N[C@@H](CCCCN)C(=O)CCl)cc1.Cl [TLCK, Na-p-Tosyl-L-lysine chloromethyl ketone hydrochloride]
- reduced cleavage of N-Bnz-R-pna ([7]; TLCK 1 mM final): 40%

Molecule: N-Succinyl-Ala-Ala-Pro-Ile-pna
- cleaved bond [1]: I-pna

Molecule: DrmSP: Drosophila melanogaster Sex Peptide; mature form a linear peptide of 36 amino acids with an S-S bridge
- effect on in-vitro synthesis of JHB3 [8]: depresses

Molecule: Z-Gly-Gly-Leu-p-Nitroanilide
- not cleaved [1]: Neither chymotrypsin nor subtilisin activity were evident

Molecule: N-Succinyl-Ala-Ala-Ala-pna
- not cleaved [1]: elastase activity was not observed

Molecule: T-SPQ: T-SP with arginine at position 25 substituted with glutamine, KPTKFPIPSPNPRDKWCQLNLGPAWGGRC (SEQ ID NO: 12); expressed transgenically
- duration of induced female non-receptivity [5, 9]: 8 days
- duration of rejection behavior (kicking and extruding ovipositor) ([5]; hsp70-GAL4 driver): 8 days
- duration of induced female non-receptivity [5, 10]: 8 days
- percentage of re-mating compared with T-SP [6]: lower percentages
- time at which females commenced re-mating after the first mating [6]: 5 days

B1: Bowman-Birk inhibitor (protein)
chain: DDESSKPCCDQCACTKSNPPQCRCSDMRLNSCHSACKSCICALSYPAQCFCVDITDFCYEPCKPSEDDKEN
- reduced cleavage of N-Bnz-R-pna ([7]; BBI 5 μM final): 78%
